Experimental data reported in patent US7772177B2, “BIR domain binding compounds” (Aegera Therapeutics, Inc., priority 2005, dated 2010).

How the values were obtained:
GST-HIAP1(cIAP-2) BIR 3 = molecular target: T1, GST-HIAP1(cIAP-2) BIR 3 (Homo sapiens, UniProt Q13489); assay: Fluorescence polarization-based competition assay, cIAP-2 Bir3; assay type: binding
T1 construct: made in house; host or cells: E. coli DH5-alpha
Description: GST-HIAP1(cIAP-2) BIR 3: HIAP1 coding sequence from amino acids 236-349, cloned into PGex4T3 via BamH1 and XhoI. The plasmid was transformed into E. coli DH5α for use in protein expression and purification.
(§1) A fluorescent peptide probe, Fmoc-Ala-Val-Pro-Phe-Tyr(t-Bu)-Leu-Pro-Gly(t-Bu)-Gly-OH was prepared using standard Fmoc chemistry on 2-chlorotrityl chloride resin (Int. J. Pept. Prot. Res. 38:555-561, 1991). Cleavage from the resin was performed using 20% acetic acid in dichloromethane (DCM), which left the side chain still blocked. The C-terminal protected carboxylic acid was coupled to 4′-(aminomethyl)fluorescein (Molecular Probes, A-1351; Eugene, Oreg.) using excess diisopropylcarbodiimide (DIC) in dimethylformamide (DMF) at room temperature and was purified by silica gel chromatography (10% methanol in DCM). The N-terminal Fmoc protecting group was removed using piperidine (20%) in DMF, and purified by silica gel chromatography (20% methanol in DCM, 0.5% HOAc). Finally, the t-butyl side chain protective groups were removed using 95% trifluoroacetic acid containing 2.5% water and 2.5% triisopropyl silane. […] Compound #174 was also used as a fluorescent probe in this assay.
(§2) For all assays, the fluorescence and fluorescence-polarization was evaluated using a Tecan Polarion instrument with the excitation filter set at 485 nm and the emission filter set at 535 nm. For each assay, the concentration of the target protein was first establish by titration of the selected protein in order to produce a linear dose-response signal when incubated alone in the presence of the fluorescent probe. Upon establishing these conditions, the compounds potency (IC50) and selectivity, was assessed in the presence of a fix defined-amount of target protein and fluorescent probe and a 10 point serial dilution of the selected compounds. For each IC50 curve, the assays were run as followed: 25 ul/well of diluted compound in 50 mM MES buffer pH 6.5 were added into a black 96 well plate then 25 ul/well of bovine serum albumin (BSA) at 0.5 mg/ml in 50 mM MES pH 6.5. Auto-fluorescence for each compound was first assessed by performing a reading of the compound/BSA solution alone. Then 25 ul of the fluorescein probe diluted into 50 mM MES containing 0.05 mg/ml BSA were added and a reading to detect quenching of fluorescein signal done. Finally 25 ul/well of the target or control protein (GST-BIRs) diluted at the appropriate concentration in 50 mM MES containing 0.05 mg/ml BSA were added and the fluorescence polarization evaluated.
(§3) For each assay the relative polarization-fluorescence units were plotted against the final concentrations of compound and the IC50 calculated using the Grad pad prism software and/or Cambridge soft. The ki value were derived from the calculated IC50 value as described above and according to the equation described in Nikolovska-Coleska, Z. (2004) Anal Biochem 332, 261-273.
(§4) Compounds exemplified in Table 6 were tested and found to have IC50s in the following ranges: A: >10 μM; B: <10 μM; C: <1 μM using the fluorescence polarization assay, as shown in Table 5. Each of the IC50s was calculated from Graph Pad.

MDA-MB-231 cells = assay: Survival assay (MTS) on MDA-MB-231 cells; assay type: cell-based; settings: Homo sapiens, 72 hours, read-out: EC50 MDA-MB-231 breast derived cell line
Description: MDA-MD-231 (breast) and H460 (lung) cancer cells were cultured in RPMI1640 media supplemented with 10% FBS and 100 units/mL of Penicillin and Steptomycin.
Survival assays were routinely done on MDA-MB-231 and H460 cells. Cells were seeded in 96 well plates at a respective density of 5000 and 2000 cells per well and incubated at 37° C. in presence of 5% CO2 for 24 hours. Selected compounds were diluted into the media at various concentration ranging from 0.01 uM up to 100 uM. Diluted compounds were added onto the MDA-MB-231 cells. For H460 cells, the compounds were added either alone or in presence of 3 ng/ml of TRAIL. After 72 hours cellular viability was evaluated by MTS based assays. A solution of [3-(4,5-dimethylthiazol-2-yl)-5-(3-carboxymethoxyphenyl)-2-(4-sulfophenyl)-2H-tetrazolium, inner salt; MTS] was added onto cells for a period of 1 to 4 hours. Upon incubation the amount of converted MTS was evaluated using a Tecan spectrophotometer set at 570 nm.

GST-HIAP2 (cIAP-1) BIR 3 = molecular target: T2, GST-HIAP2 (cIAP-1) BIR 3 (Homo sapiens, UniProt Q13490); assay: Fluorescence polarization-based competition assay, cIAP-1 Bir3; assay type: binding
T2 construct: made in house; host or cells: E. coli DH5-alpha
T2 sequence (Q13490 251-363): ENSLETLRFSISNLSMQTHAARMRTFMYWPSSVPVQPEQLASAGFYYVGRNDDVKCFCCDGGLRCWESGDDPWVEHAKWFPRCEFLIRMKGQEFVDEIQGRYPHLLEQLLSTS
Description: GST-HIAP2 (cIAP-1) BIR 3: HIAP2 coding sequence from amino acids 251-363 cloned into PGex4T3 via BamH1 and XhoI. The plasmid was transformed into E. coli DH5α for use in protein expression and purification.
as §1, §2, §3, §4

GST-XIAP BIR3RING = molecular target: T3, GST-XIAP BIR3RING (Homo sapiens, UniProt P98170); assay: Fluorescence polarization-based competition assay, XIAP Bir3-RING; assay type: binding
T3 construct: made in house; host or cells: E. coli DH5-alpha
T3 sequence (P98170 246-497): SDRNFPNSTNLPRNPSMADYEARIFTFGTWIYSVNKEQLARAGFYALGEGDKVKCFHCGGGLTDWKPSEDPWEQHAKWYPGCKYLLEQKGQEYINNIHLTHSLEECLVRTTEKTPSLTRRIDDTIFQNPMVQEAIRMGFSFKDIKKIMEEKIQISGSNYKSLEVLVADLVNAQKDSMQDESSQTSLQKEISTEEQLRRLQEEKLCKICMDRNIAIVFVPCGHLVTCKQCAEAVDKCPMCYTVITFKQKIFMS
Description: GST-XIAP BIR3RING: XIAP coding sequence amino acids 246-497 cloned into PGEX2T1 via BamH1 and AVA I. The plasmid was transformed into E. coli DH5α for use in protein expression and purification.
as §1, §2, §3, §4

[1] = molecular target: T4, caspase-3 inhibited by linker BIR2-BIR3-RING of XIAP (Homo sapiens, UniProt P98170); assay: Caspase-3 linker-BIR2-BIR3-RING derepression assay; assay type: biochemical
T4 construct: made in house; host or cells: E. coli DH5-alpha (GST-XIAP); E. coli AD494 (His-caspase-3)
T4 sequence (P98170 93-497): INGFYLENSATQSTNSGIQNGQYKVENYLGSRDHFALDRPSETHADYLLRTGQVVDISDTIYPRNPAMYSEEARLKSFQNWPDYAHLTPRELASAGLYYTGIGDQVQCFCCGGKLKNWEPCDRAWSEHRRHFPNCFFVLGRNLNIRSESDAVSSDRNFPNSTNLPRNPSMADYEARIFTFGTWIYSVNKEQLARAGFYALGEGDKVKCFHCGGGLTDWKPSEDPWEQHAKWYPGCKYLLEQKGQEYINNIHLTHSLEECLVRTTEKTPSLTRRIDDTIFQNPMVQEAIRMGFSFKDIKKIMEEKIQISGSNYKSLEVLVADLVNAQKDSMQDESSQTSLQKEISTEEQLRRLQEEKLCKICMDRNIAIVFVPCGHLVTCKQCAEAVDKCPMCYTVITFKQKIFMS
Description: In order to determine the relative activity of the selected compound against BIR2, an in vitro assay was used where caspase-3 was inhibited by linker-BIR2 or linker BIR2-BIR3-RING of XIAP. Briefly, 1.5 ul of the enzyme, 0.25 uM to 2 uM of GST-Xiap fusion protein (GST-linker BIR2, GST-linker BIR2BIR3RING) were co-incubated with serial dilutions of compound (80 uM-0.04 uM). Caspase 3 activity was measured by overlaying 25 ul of a 0.4 mM DEVD-AMC solution. Final reaction volume was 100 ul. All dilutions were performed in caspase buffer (50 mM Hepes pH 7.4, 100 mM NaCl, 10% sucrose, 1 mM EDTA, 10 mM DTT, 0.1% CHAPS (Stennicke, H. R., and Salvesen, G. S. (1997). Biochemical characteristics of caspase-3, -6, -7, and -8. J. Biol. Chem. 272, 25719-25723)).
The fluorescent AMC released from the caspase-3 hydrolysis of the substrate was measured in a TECAN spectrophotometer at 360 nm excitation and 444 nm emission, on a kinetic cycle of 30 minutes with readings taken every 2 minutes. Caspase activity was calculated as Vo of AMC fluorescence/sec. Caspase de-repression by our compounds were compared to caspase-3 alone and caspase 3 repressed by the presence of XIAP fusion protein.
(§5) Results: Compounds were also tested in the apoptosome assay and the linker-BIR2/caspase-3 inhibition assay and found to have IC50s in the following ranges: A: >10 μM; B: <10 μM; C: <1 μM, as shown in Table 7.

[2] = molecular target: T5, XIAP Bir3-RING (GST-BIR 3RING) (Homo sapiens, UniProt P98170); assay: Caspase de-repression assay using cellular extracts (apoptosome), XIAP Bir3-RING; assay type: biochemical; settings: 293 cell S100 extract
T5 construct: made in house; host or cells: E. coli DH5-alpha
T5 sequence (P98170 246-497): as the sequence (P98170 246-497) above
Description: (§6) 100 ug of 293 cell S100 extract and 0.25 uM-2 uM of GST-Xiap fusion protein (GST-BIR 3RING, GST-linker BIR2 BIR3RING) were co-incubated with serial dilutions of compound (0.02 uM-40 uM). Extracts were activated by adding 1 mM dATP, 0.1 mM ALLN, 133 ug Cytochrome C (final concentrations), and incubating at 37° C. for 25 minutes. All reactions and dilutions used S100 buffer (50 mM Pipes pH 7.0, 50 mM KCl, 0.5 mM EGTA pH 8.0, 2 mM MgCl2 supplemented with 1/1000 dilutions of 2 mg/ml Cytochalisin B, 2, mg/ml Chymotstatin, Leupeptin, Pepstatin, Antipain, 0.1M PMSF, 1M DTT). Final reaction volume was 30 ul. Caspase-3 activity was measured by overlaying 30 ul of a 0.4 mM DEVD-AMC solution. AMC cleavage was measured in a TECAN spectrophotometer at 360 nm excitation and 444 nm emission, on a kinetic cycle of 1 hour with readings taken every 5 minutes. Caspase activity was calculated as Vo of AMC fluorescence/sec. Caspase de-repression by our compounds were compared to fully activated extract and activated extract repressed by the presence of XIAP fusion protein.
as §5

[3] = molecular target: T6, XIAP Bir2-Bir3-RING (GST-linker BIR2 BIR3RING) (Homo sapiens, UniProt P98170); assay: Caspase de-repression assay using cellular extracts (apoptosome), XIAP Bir2-Bir3-RING; assay type: biochemical; settings: 293 cell S100 extract
T6 construct: made in house; host or cells: E. coli DH5-alpha
T6 sequence (P98170 93-497): as the sequence (P98170 93-497) above
Description: as §6, §5

T1 sequence (Q13489 236-349): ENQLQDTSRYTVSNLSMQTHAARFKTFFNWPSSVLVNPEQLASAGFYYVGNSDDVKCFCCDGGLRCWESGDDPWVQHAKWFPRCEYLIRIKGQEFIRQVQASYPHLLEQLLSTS

Row | SMILES | IC50 (GST-HIAP1(cIAP-2) BIR 3) [µM] | EC50 (MDA-MB-231 cells) [µM] | IC50 (GST-HIAP2 (cIAP-1) BIR 3) [µM] | IC50 (GST-XIAP BIR3RING) [µM] | IC50 [1] [µM] | IC50 [2] [µM] | IC50 [3] [µM]
1 | CN[C@@H](C)C(=O)N[C@H](C(=O)N1CCC[C@H]1CN(CCc1ccccc1)C(=O)[C@@H](N)Cc1ccccc1)C(C)(C)C [Compound 44] | < 1 | < 5 | < 1 | < 10 |  |  | 
2 | CN[C@@H](C)C(=O)N[C@H](C(=O)N1CCC[C@H]1CN(CCc1ccccc1)C(=O)CCCc1ccccc1)C(C)(C)C [Compound 48] | < 1 | < 5 | < 1 | < 1 |  |  | 
3 | CN[C@@H](C)C(=O)N[C@H](C(=O)N1CCC[C@H]1CN(CCc1ccccc1)C(=O)c1ccc(F)cc1)C(C)(C)C [Compound 75] |  | < 5 |  |  |  |  | 
4 | CN[C@@H](C)C(=O)N[C@@H](CCc1ccccc1)C(=O)N1CCC[C@H]1CN(CCc1ccccc1)C(=O)[C@H](N)Cc1ccccc1 [Compound 89] |  | < 5 |  |  |  |  | 
5 | CN[C@@H](C)C(=O)N[C@@H](CCc1ccccc1)C(=O)N1CCC[C@H]1CN(CCc1ccccc1)C(=O)[C@H](N)Cc1ccc(OC)cc1 [Compound 84] |  | < 5 |  |  |  |  | 
6 | CC(=O)N(Cc1ccccn1)C[C@@H]1CCCN1C(=O)[C@@H](NC(=O)[C@H](C)N)C(C)C [Compound 8] | < 10 |  | < 10 | > 10 | > 10 | < 1 | > 10
7 | CN[C@@H](C)C(=O)N[C@H](C(=O)N1CCC[C@H]1CN(CCc1ccccc1)C(=O)CCc1ccccc1)C(C)(C)C [Compound 27] | < 1 |  | < 1 | < 1 | > 10 | < 1 | < 10
8 | CC[C@H](N)C(=O)N[C@H](C(=O)N1CCC[C@H]1CN([C@H](C)c1ccccc1)S(C)(=O)=O)C(C)C [Compound 6] | > 10 |  | > 10 | > 10 | > 10 | < 1 | < 10
9 | CC(C)[C@H](NC(=O)[C@H](C)N)C(=O)N1CCC[C@H]1CNCCc1ccccc1 [Compound 18] | < 1 |  | < 1 | < 1 | > 10 | < 1 | > 10
10 | CC(C)[C@H](NC(=O)[C@H](C)N)C(=O)N1CCC[C@H]1CN(CCc1ccccc1)C(=O)Cc1ccccc1 [Compound 23] | < 1 |  | < 1 | < 1 | > 10 | < 1 | > 10
11 | CN[C@@H](C)C(=O)N[C@H](C(=O)N1CCC[C@H]1CN(CCc1ccccc1)C(=O)C(F)(F)F)C(C)(C)C [Compound 10] | < 1 |  | < 1 | < 1 | > 10 | < 10 | > 10
12 | CC(C)[C@H](NC(=O)[C@H](C)N)C(=O)N1CCC[C@H]1CN(C(=O)C(F)(F)F)[C@H]1CCCc2ccccc21 [Compound 4] | < 10 |  | < 10 | < 10 | > 10 | > 10 | > 10
13 | CC[C@H](N)C(=O)N[C@H](C(=O)N1CCC[C@H]1CNC(=O)Cc1ccccc1)C(C)C [Compound 14] | > 10 |  | > 10 | > 10 | > 10 | < 10 | > 10
14 | CC(C)[C@H](NC(=O)[C@H](C)N)C(=O)N1CCC[C@H]1CN(CCCCO)CCc1ccccc1 [Compound 29] | < 1 |  | < 1 | < 10 | > 10 | < 1 | < 10
15 | CC(C)[C@H](NC(=O)[C@H](C)N)C(=O)N1CCC[C@H]1CN(CCc1ccccc1)C(=O)CCc1ccccc1 [Compound 21] | < 1 |  | < 1 | < 1 | > 10 | < 1 | > 10
16 | CC[C@H](N)C(=O)N[C@H](C(=O)N1CCC[C@H]1CN(C(=O)C(F)(F)F)[C@H](C)c1ccccc1)C(C)C [Compound 13] | > 10 |  | < 10 | < 10 | > 10 | < 10 | > 10
17 | CC(C)[C@H](NC(=O)[C@H](C)N)C(=O)N1CCC[C@H]1CN(C(=O)C(F)(F)F)[C@@H]1CCCc2ccccc21 [Compound 3] | < 10 |  | < 10 | < 10 | < 10 | < 1 | > 10
